Data from the kinase profiling compilation of Christmann-Franck et al. (2016).
One block for each compound: values may come before it.

What was measured:
Experiment in all cases: KINOMEscan competition binding
Conditions in all cases: compound 10.0 µM
ABL1 (human) = ABL1 (human) (UniProt P00519)
ANKK1 (human) = ANKK1 (human) (UniProt Q8NFD2)
BMPR1B (human) = BMPR1B (human) (UniProt O00238)
CAMKK1 (human) = CAMKK1 (human) (UniProt Q8N5S9)
CDK17 (human) = CDK17 (human) (UniProt Q00537)
CDK3 (human) = CDK3 (human) (UniProt Q00526)
CDK9 (human) = CDK9 (human) (UniProt P50750)
CDKL5 (human) = CDKL5 (human) (UniProt O76039)
CLK2 (human) = CLK2 (human) (UniProt P49760)
DAPK2 (human) = DAPK2 (human) (UniProt Q9UIK4)
DMPK (human) = DMPK (human) (UniProt Q09013)
EPHB3 (human) = EPHB3 (human) (UniProt P54753)
FGFR3 (human) = FGFR3 (human) (UniProt P22607)
[1] = test system: FGFR3 (human), P22607 [G697C]
FGR (human) = FGR (human) (UniProt P09769)
FYN (human) = FYN (human) (UniProt P06241)
IKBKB (human) = IKBKB (human) (UniProt O14920)
IKBKE (human) = IKBKE (human) (UniProt Q14164)
INSR (human) = INSR (human) (UniProt P06213)
[2] = target: JAK1 JH2 pseudokinase (human) (UniProt P23458)
KIT (human) = KIT (human) (UniProt P10721)
MAPK15 (human) = MAPK15 (human) (UniProt Q8TD08)
MAPKAPK2 (human) = MAPKAPK2 (human) (UniProt P49137)
MERTK (human) = MERTK (human) (UniProt Q12866)
MST1R (human) = MST1R (human) (UniProt Q04912)
MYLK2 (human) = MYLK2 (human) (UniProt Q9H1R3)
NUAK2 (human) = NUAK2 (human) (UniProt Q9H093)
OXSR1 (human) = OXSR1 (human) (UniProt O95747)
PDPK1 (human) = PDPK1 (human) (UniProt O15530)
PIK3C2G (human) = PIK3C2G (human) (UniProt O75747)
[3] = test system: PIK3CA (human), P42336 [E545A]
PIM2 (human) = PIM2 (human) (UniProt Q9P1W9)
PKN1 (human) = PKN1 (human) (UniProt Q16512)
PRKD2 (human) = PRKD2 (human) (UniProt Q9BZL6)
PRKD3 (human) = PRKD3 (human) (UniProt O94806)
PTK2B (human) = PTK2B (human) (UniProt Q14289)
RIOK2 (human) = RIOK2 (human) (UniProt Q9BVS4)
RPS6KA4 KD1 (human) = RPS6KA4 KD1 (human) (UniProt O75676)
RPS6KA4 KD2 (human) = RPS6KA4 KD2 (human) (UniProt O75676)
SIK2 (human) = SIK2 (human) (UniProt Q9H0K1)
SRPK2 (human) = SRPK2 (human) (UniProt P78362)
MLTK (human) = MLTK (human) (UniProt Q9NYL2)

Sequence of OXSR1 (human) (O95747 whole entry, looked up): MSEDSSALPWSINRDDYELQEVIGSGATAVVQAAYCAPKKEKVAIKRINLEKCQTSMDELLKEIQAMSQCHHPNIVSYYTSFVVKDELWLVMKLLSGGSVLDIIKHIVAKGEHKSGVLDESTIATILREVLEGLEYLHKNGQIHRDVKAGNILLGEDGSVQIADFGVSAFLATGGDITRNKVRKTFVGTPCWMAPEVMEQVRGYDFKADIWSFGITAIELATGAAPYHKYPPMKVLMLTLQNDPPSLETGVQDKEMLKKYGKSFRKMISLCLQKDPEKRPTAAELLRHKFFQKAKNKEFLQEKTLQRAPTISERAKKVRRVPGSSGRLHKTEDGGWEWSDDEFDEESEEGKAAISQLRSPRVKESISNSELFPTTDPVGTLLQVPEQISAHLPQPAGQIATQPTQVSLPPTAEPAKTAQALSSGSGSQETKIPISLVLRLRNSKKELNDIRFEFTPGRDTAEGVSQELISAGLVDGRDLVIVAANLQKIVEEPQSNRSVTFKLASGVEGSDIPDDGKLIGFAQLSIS
Sequence of CDK17 (human) (Q00537 whole entry, looked up): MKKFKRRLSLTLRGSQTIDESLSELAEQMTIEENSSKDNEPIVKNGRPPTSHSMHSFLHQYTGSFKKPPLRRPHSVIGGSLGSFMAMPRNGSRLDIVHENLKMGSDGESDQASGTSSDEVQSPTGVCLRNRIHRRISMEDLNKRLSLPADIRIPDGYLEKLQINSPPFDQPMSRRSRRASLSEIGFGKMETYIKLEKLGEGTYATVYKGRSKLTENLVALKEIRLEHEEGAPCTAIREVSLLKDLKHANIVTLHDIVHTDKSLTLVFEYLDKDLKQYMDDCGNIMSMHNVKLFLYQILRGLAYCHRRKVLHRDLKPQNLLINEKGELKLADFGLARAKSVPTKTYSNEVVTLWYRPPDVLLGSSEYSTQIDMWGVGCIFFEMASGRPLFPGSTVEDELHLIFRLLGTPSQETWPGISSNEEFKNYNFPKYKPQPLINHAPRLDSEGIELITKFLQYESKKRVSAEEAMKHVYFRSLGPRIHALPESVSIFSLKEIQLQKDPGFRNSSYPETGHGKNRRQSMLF
Sequence of PKN1 (human) (Q16512 whole entry, looked up): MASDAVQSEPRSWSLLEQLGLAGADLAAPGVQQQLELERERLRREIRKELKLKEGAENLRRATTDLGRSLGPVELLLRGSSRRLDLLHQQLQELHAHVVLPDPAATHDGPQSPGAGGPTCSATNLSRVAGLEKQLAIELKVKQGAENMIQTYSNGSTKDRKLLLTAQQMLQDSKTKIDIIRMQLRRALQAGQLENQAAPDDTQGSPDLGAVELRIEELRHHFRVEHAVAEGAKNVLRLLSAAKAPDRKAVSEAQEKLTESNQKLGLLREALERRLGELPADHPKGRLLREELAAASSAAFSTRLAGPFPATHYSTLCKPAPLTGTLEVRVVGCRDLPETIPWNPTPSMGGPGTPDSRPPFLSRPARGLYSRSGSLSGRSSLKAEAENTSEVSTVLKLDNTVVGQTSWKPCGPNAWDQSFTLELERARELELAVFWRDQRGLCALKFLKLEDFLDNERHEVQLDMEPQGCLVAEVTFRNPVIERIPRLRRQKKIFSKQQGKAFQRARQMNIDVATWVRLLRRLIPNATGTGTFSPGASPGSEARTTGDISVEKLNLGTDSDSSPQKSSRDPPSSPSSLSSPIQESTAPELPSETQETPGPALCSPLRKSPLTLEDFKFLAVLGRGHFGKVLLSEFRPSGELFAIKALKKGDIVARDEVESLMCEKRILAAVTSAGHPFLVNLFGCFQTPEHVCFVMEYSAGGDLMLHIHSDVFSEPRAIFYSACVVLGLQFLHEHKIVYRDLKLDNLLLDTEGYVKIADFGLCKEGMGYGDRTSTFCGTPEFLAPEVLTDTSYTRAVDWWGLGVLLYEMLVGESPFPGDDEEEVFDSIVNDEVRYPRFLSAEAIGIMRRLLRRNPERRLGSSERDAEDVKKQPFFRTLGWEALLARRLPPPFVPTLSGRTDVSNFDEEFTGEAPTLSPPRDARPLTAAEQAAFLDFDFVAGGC
Sequence of PIK3C2G (human) (O75747 whole entry, looked up): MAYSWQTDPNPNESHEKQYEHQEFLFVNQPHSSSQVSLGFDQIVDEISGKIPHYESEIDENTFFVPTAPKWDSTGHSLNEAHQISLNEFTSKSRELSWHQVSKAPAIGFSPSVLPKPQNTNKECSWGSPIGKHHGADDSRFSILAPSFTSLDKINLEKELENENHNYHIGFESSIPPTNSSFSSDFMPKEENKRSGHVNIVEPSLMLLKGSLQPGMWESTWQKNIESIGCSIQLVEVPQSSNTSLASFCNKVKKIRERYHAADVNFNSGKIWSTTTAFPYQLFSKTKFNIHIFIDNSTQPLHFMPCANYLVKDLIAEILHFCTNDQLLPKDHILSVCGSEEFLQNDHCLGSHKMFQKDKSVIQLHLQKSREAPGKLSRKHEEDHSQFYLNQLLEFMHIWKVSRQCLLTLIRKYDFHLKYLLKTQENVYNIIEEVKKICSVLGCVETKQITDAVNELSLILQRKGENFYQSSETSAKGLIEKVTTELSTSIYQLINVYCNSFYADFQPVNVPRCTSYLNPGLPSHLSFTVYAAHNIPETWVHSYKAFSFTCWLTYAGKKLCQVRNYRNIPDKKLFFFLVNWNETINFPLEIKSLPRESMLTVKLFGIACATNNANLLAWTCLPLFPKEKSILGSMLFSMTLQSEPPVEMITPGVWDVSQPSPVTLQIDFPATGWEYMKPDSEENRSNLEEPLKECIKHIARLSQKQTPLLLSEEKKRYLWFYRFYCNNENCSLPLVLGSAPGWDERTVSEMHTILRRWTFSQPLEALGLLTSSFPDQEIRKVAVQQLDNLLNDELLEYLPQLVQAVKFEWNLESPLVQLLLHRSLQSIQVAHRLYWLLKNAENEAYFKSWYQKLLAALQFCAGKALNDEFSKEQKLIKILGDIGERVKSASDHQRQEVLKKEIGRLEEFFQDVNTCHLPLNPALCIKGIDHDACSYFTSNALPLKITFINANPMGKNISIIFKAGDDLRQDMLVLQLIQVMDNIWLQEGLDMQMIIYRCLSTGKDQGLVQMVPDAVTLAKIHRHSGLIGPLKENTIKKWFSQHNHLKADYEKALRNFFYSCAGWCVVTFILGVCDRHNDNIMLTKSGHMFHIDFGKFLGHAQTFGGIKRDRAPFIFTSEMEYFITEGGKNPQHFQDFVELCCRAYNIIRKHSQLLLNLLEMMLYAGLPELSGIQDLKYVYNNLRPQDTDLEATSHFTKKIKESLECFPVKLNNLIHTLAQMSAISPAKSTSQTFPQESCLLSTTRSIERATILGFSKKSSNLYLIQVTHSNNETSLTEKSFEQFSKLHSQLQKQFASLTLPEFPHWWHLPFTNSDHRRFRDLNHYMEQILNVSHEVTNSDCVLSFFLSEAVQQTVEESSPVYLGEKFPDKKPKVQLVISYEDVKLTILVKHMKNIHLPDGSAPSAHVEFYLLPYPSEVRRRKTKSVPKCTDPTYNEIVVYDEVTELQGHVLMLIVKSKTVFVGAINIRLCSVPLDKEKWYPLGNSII
Sequence of CDK9 (human) (P50750 whole entry, looked up): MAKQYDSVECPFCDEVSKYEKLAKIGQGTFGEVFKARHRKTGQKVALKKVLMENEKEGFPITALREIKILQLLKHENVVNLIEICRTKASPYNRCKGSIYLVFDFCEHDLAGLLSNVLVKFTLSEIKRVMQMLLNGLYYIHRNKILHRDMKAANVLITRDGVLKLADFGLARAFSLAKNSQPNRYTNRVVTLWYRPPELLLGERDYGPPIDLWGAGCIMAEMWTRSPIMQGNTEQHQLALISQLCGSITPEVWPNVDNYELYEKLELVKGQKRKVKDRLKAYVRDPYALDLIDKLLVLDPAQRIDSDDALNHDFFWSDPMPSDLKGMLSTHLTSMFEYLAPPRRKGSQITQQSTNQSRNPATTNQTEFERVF
Sequence of MERTK (human) (Q12866 whole entry, looked up): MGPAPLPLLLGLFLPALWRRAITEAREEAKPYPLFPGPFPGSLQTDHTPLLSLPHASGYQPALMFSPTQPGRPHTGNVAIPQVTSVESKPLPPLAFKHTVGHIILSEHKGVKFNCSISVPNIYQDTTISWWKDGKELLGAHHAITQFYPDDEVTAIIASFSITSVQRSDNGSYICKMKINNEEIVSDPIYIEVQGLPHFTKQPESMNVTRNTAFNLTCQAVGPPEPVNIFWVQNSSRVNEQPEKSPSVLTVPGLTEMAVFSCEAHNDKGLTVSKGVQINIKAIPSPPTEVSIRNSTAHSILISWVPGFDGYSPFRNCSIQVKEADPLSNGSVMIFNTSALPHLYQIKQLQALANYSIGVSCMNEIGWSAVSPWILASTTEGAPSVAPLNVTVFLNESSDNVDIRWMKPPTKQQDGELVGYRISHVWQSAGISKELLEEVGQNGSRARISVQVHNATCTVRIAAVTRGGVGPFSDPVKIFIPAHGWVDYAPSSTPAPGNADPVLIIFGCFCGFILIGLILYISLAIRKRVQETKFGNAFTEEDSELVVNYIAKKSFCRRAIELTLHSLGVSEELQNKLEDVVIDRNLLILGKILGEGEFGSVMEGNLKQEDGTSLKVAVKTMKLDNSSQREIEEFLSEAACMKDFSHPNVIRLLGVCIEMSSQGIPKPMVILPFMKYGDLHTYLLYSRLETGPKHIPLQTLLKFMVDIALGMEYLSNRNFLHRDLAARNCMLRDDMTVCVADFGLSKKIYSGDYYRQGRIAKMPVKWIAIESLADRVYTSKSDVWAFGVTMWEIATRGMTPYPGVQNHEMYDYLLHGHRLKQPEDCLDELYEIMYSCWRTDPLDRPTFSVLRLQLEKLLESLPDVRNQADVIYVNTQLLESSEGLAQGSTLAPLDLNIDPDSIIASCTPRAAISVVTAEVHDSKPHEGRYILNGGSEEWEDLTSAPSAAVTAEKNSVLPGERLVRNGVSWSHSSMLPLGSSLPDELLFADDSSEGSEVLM

kinase still bound, per cent of control (ABL1 (human)): 96%
kinase still bound, per cent of control (ANKK1 (human)): 100%
kinase still bound, per cent of control (BMPR1B (human)): 92%
kinase still bound, per cent of control (CAMKK1 (human)): 100%
kinase still bound, per cent of control (CDK17 (human)): 100%
kinase still bound, per cent of control (CDK3 (human)): 89%
kinase still bound, per cent of control (CDK9 (human)): 58%
kinase still bound, per cent of control (CDKL5 (human)): 100%
kinase still bound, per cent of control (CLK2 (human)): 40%
kinase still bound, per cent of control (DAPK2 (human)): 94%
kinase still bound, per cent of control (DMPK (human)): 92%
kinase still bound, per cent of control (EPHB3 (human)): 100%
kinase still bound, per cent of control (FGFR3 (human)): 100%
kinase still bound, per cent of control [1]: 100%
kinase still bound, per cent of control (FGR (human)): 100%
kinase still bound, per cent of control (FYN (human)): 100%
kinase still bound, per cent of control (IKBKB (human)): 80%
kinase still bound, per cent of control (IKBKE (human)): 98%
kinase still bound, per cent of control (INSR (human)): 100%
kinase still bound, per cent of control [2]: 87%
kinase still bound, per cent of control (KIT (human)): 100%
kinase still bound, per cent of control (MAPKAPK2 (human)): 100%
kinase still bound, per cent of control (MERTK (human)): 100%
kinase still bound, per cent of control (MST1R (human)): 100%
kinase still bound, per cent of control (MYLK2 (human)): 97%
kinase still bound, per cent of control (NUAK2 (human)): 94%
kinase still bound, per cent of control (OXSR1 (human)): 70%
kinase still bound, per cent of control (PDPK1 (human)): 99%
kinase still bound, per cent of control (PIK3C2G (human)): 100%
kinase still bound, per cent of control [3]: 100%
kinase still bound, per cent of control (PIM2 (human)): 89%
kinase still bound, per cent of control (PKN1 (human)): 100%
kinase still bound, per cent of control (PRKD2 (human)): 100%
kinase still bound, per cent of control (PRKD3 (human)): 88%
kinase still bound, per cent of control (PTK2B (human)): 100%
kinase still bound, per cent of control (RIOK2 (human)): 22%
kinase still bound, per cent of control (RPS6KA4 KD1 (human)): 64%
kinase still bound, per cent of control (RPS6KA4 KD2 (human)): 80%
kinase still bound, per cent of control (SIK2 (human)): 100%
kinase still bound, per cent of control (SRPK2 (human)): 100%
Compound: Cc1cnc(-c2cnc(NCCNc3ccc(C#N)cn3)nc2-c2ccc(Cl)cc2Cl)[nH]1
kinase still bound, per cent of control (MAPK15 (human)): 68%

kinase still bound, per cent of control (ABL1 (human)): 100%
kinase still bound, per cent of control (ANKK1 (human)): 86%
kinase still bound, per cent of control (BMPR1B (human)): 86%
kinase still bound, per cent of control (CAMKK1 (human)): 68%
kinase still bound, per cent of control (CDK17 (human)): 12%
kinase still bound, per cent of control (CDK3 (human)): 14%
kinase still bound, per cent of control (CDK9 (human)): 92%
kinase still bound, per cent of control (CDKL5 (human)): 100%
kinase still bound, per cent of control (CLK2 (human)): 0.45%
kinase still bound, per cent of control (DAPK2 (human)): 67%
kinase still bound, per cent of control (DMPK (human)): 98%
kinase still bound, per cent of control (EPHB3 (human)): 100%
kinase still bound, per cent of control (FGFR3 (human)): 97%
kinase still bound, per cent of control [1]: 100%
kinase still bound, per cent of control (FGR (human)): 100%
kinase still bound, per cent of control (FYN (human)): 96%
kinase still bound, per cent of control (IKBKB (human)): 83%
kinase still bound, per cent of control (IKBKE (human)): 85%
kinase still bound, per cent of control (INSR (human)): 91%
kinase still bound, per cent of control [2]: 82%
kinase still bound, per cent of control (KIT (human)): 79%
kinase still bound, per cent of control (MAPKAPK2 (human)): 100%
kinase still bound, per cent of control (MERTK (human)): 100%
kinase still bound, per cent of control (MLTK (human)): 93%
kinase still bound, per cent of control (MST1R (human)): 100%
kinase still bound, per cent of control (MYLK2 (human)): 100%
kinase still bound, per cent of control (NUAK2 (human)): 100%
kinase still bound, per cent of control (OXSR1 (human)): 100%
kinase still bound, per cent of control (PDPK1 (human)): 100%
kinase still bound, per cent of control (PIK3C2G (human)): 94%
kinase still bound, per cent of control [3]: 100%
kinase still bound, per cent of control (PIM2 (human)): 84%
kinase still bound, per cent of control (PKN1 (human)): 73%
kinase still bound, per cent of control (PRKD2 (human)): 99%
kinase still bound, per cent of control (PRKD3 (human)): 78%
kinase still bound, per cent of control (PTK2B (human)): 94%
kinase still bound, per cent of control (RIOK2 (human)): 95%
kinase still bound, per cent of control (RPS6KA4 KD1 (human)): 100%
kinase still bound, per cent of control (RPS6KA4 KD2 (human)): 96%
kinase still bound, per cent of control (SIK2 (human)): 89%
kinase still bound, per cent of control (SRPK2 (human)): 83%
Compound: Cn1cc(C2=C(c3ccc(Cl)cc3Cl)C(=O)NC2=O)c2ccccc21
kinase still bound, per cent of control (MAPK15 (human)): 1.7%

kinase still bound, per cent of control (ABL1 (human)): 100%
kinase still bound, per cent of control (ANKK1 (human)): 100%
kinase still bound, per cent of control (BMPR1B (human)): 89%
kinase still bound, per cent of control (CAMKK1 (human)): 93%
kinase still bound, per cent of control (CDK17 (human)): 79%
kinase still bound, per cent of control (CDK3 (human)): 68%
kinase still bound, per cent of control (CDK9 (human)): 89%
kinase still bound, per cent of control (CDKL5 (human)): 100%
kinase still bound, per cent of control (CLK2 (human)): 73%
kinase still bound, per cent of control (DAPK2 (human)): 93%
kinase still bound, per cent of control (DMPK (human)): 100%
kinase still bound, per cent of control (EPHB3 (human)): 100%
kinase still bound, per cent of control (FGFR3 (human)): 100%
kinase still bound, per cent of control [1]: 100%
kinase still bound, per cent of control (FGR (human)): 100%
kinase still bound, per cent of control (FYN (human)): 87%
kinase still bound, per cent of control (IKBKB (human)): 100%
kinase still bound, per cent of control (IKBKE (human)): 88%
kinase still bound, per cent of control [2]: 89%
kinase still bound, per cent of control (KIT (human)): 100%
kinase still bound, per cent of control (MAPKAPK2 (human)): 94%
kinase still bound, per cent of control (MERTK (human)): 100%
kinase still bound, per cent of control (MLTK (human)): 100%
kinase still bound, per cent of control (MST1R (human)): 100%
kinase still bound, per cent of control (MYLK2 (human)): 93%
kinase still bound, per cent of control (NUAK2 (human)): 93%
kinase still bound, per cent of control (OXSR1 (human)): 100%
kinase still bound, per cent of control (PDPK1 (human)): 78%
kinase still bound, per cent of control (PIK3C2G (human)): 100%
kinase still bound, per cent of control [3]: 94%
kinase still bound, per cent of control (PIM2 (human)): 76%
kinase still bound, per cent of control (PKN1 (human)): 100%
kinase still bound, per cent of control (PRKD2 (human)): 93%
kinase still bound, per cent of control (PRKD3 (human)): 100%
kinase still bound, per cent of control (PTK2B (human)): 100%
kinase still bound, per cent of control (RIOK2 (human)): 23%
kinase still bound, per cent of control (RPS6KA4 KD1 (human)): 98%
kinase still bound, per cent of control (RPS6KA4 KD2 (human)): 85%
kinase still bound, per cent of control (SIK2 (human)): 80%
kinase still bound, per cent of control (SRPK2 (human)): 81%
Compound: COc1ccc(CNC(=O)Nc2ncc([N+](=O)[O-])s2)cc1
kinase still bound, per cent of control (MAPK15 (human)): 51%
